Test results as given in US20220143053A1, “ANTI-MICROBIAL METHODS AND MATERIALS” (priority 2019, published 2022).
≈ marks a conversion by molar mass, not a printed value. Where two headings read alike, the source gives them in different places.

What was measured:
[1] = test system: methicillin-sensitive Staphylococcus aureus (MSSA, ATCC 12600); experiment: Minimum inhibitory concentration (MIC) test, CLSI M07-A10; type: cell-based
Procedure: (§1) Antibacterial activity of sodium channel blockers (lidocaine, bupivacaine, tetracaine, procaine, prilocaine), NSAIDs (ketorolac and tolfenamic acid), antioxidants (resveratrol and curcumin), and antibiotics (gentamicin and vancomycin) was performed against methicillin-sensitive Staphylococcus aureus (MSSA, ATCC 12600). The bacterial susceptibility tests were conducted as outlined in the Clinical and Laboratory Standard Institute (CLSI) protocol M07-A10. Bacterial suspensions with a concentration of approximately 5*10^5 CFU/ml were prepared in Lysogeny broth and mixed with the tested drugs. […] Minimum bactericidal concentration (MBC) was determined as the minimum concentration of the tested drug needed to kill 99.9% of bacteria (or 3−log 10 reduction). […] The MBC was measured for lidocaine, bupivacaine, ketorolac, and gentamicin.

[2] = systemic administration; cited from earlier work
[3] = test system: methicillin-sensitive S. aureus; details: cited from earlier work
[4] = test system: Bacillus cereus, MSSA, MRSA, Escherichia coli, Klebsiella pneumoniae, Pseudomonas aeruginosa, Enterobacter aerogenes, and Salmonella Choleraesuis; details: eight listed bacteria; cited from earlier work
[5] = Drug solubility limit in growth medium; type: physicochemical; details: plasma or biological fluid
MSSA (ATCC 14775) = experiment: Time-kill experiments; type: cell-based, Staphylococcus aureus; details: between 4 and 24 h
Procedure: Time-kill curves employing 3 time-points (0, 4, 24 hours) over the period of 24 hours were obtained for characterization of the antibacterial activity of selected combinations against MSSA (ATCC® 14775). Tested combinations of drugs were incubated with 5*10^5 CFU/ml of bacteria in Lysogeny broth at 37° C. At a given time-point, aliquots were collected, and bacterial concentrations were determined using the spread-plate method. The minimum accurately countable concentration was 10^2 CFU/ml. […] The increase of bacterial concentration represented antagonism.

[6] = test system: methicillin-sensitive Staphylococcus aureus (MSSA, ATCC 12600); experiment: Minimum bactericidal concentration (MBC) test; type: cell-based; details: MSSA ATCC 12600, kill 99.9% of bacteria
Procedure: as §1

[7] = Staphylococcus aureus, MSSA ATCC 12600, Lysogeny broth, 24-hour incubation at 37° C., read-out: MIC

Q: For CCCCNc1ccc(C(=O)OCCN(C)C)cc1 [Tetracaine], which MIC [1, 7] is on record?
A: 938 µg/mL (≈ 3.55 mM)

Q: What does the source list for CN[C@H](CC(C)C)C(=O)N[C@H]1C(=O)N[C@@H](CC(N)=O)C(=O)N[C@H]2C(=O)N[C@H]3C(=O)N[C@H](C(=O)N[C@H](C(=O)O)c4cc(O)cc(O)c4-c4cc3ccc4O)[C@H](O)c3ccc(c(Cl)c3)Oc3cc2cc(c3O[C@@H]2O[C@H](CO)[C@@H](O)[C@H](O)[C@H]2O[C@H]2C[C@](C)(N)[C@H](O)[C@H](C)O2)Oc2ccc(cc2Cl)[C@H]1O [Vancomycin]?
A: concentration in the bone relative to that in the serum [2]: ~20%; MIC ([1]; Staphylococcus aureus, 24 h): 0.625 µg/mL (≈ 0.000431 mM)

Q: With CCN(CC)CC(=O)Nc1c(C)cccc1C [Lidocaine] as the compound, how does the antibacterial effects [3] read?
A: measurable antibacterial effects

Q: What about the MIC [1, 7] of the same compound?
A: 15600 µg/mL (≈ 66.7 mM)

Q: Which MIC [1, 7] does the source give for Oc1ccc(C=Cc2cc(O)cc(O)c2)cc1 [Resveratrol] here?
A: 125 µg/mL (≈ 0.548 mM)

Q: For Cc1c(Cl)cccc1Nc1ccccc1C(=O)O [Tolfenamic Acid], which MIC [1, 7] is on record?
A: 250 µg/mL (≈ 0.955 mM)

Q: For CCCNC(C)C(=O)Nc1ccccc1C (stereo not shown) [Prilocaine], which MIC [1, 7] is on record?
A: 25000 µg/mL (≈ 113 mM)

Q: For CC(=O)Oc1ccccc1C(=O)O [aspirin], which antibacterial activity [4] is on record?
A: measurable antibacterial activity

Q: For CC(C)Cc1ccc(C(C)C(=O)O)cc1 (stereo not shown) [Ibuprofen], which antibacterial activity [4] is on record?
A: measurable antibacterial activity

Q: Which antibacterial activity [4] does the source give for O=C(O)Cc1ccccc1Nc1c(Cl)cccc1Cl [diclofenac] here?
A: measurable antibacterial activity

Q: For Cc1cccc(Nc2ccccc2C(=O)O)c1C [mefenamic acid], which antibacterial activity [4] is on record?
A: measurable antibacterial activity

Q: Which results are given for CCCCN1CCCCC1C(=O)Nc1c(C)cccc1C (stereo not shown) [Bupivacaine]?
A: antibacterial effects [3]: measurable antibacterial effects; solubility [5]: ~15 mg/mL (≈ 52 mM); MIC [1, 7]: 1880 µg/mL (≈ 6.5 mM)

Q: Which “regrowth in time-kill curves” value (MSSA (ATCC 14775)) does the source give for Gentamicin here?
A: regrowth phase

Q: And the MBC [6]?
A: 2 µg/mL

Q: What about the MIC ([1]; MSSA ATCC 12600, Lysogeny broth, 24-hour incubation at 37° C.) of the same compound?
A: 4 µg/mL

Q: Which MIC [1, 7] does the source give for COc1cc(/C=C/C(=O)CC(=O)/C=C/c2ccc(O)c(OC)c2)ccc1O [Curcumin] here?
A: 188 µg/mL (≈ 0.509 mM)

Q: What does the source list for O=C(c1ccccc1)c1ccc2n1CCC2C(=O)O (stereo not shown) [Ketorolac]?
A: solubility [5]: ~18 mg/mL (≈ 70.5 mM); MIC [1, 7]: 3120 µg/mL (≈ 12.2 mM)

Q: Which MIC [1, 7] does the source give for CCN(CC)CCOC(=O)c1ccc(N)cc1 [Procaine] here?
A: 100000 µg/mL (≈ 423 mM)
